Measured values: article PMC9841527 (Journal of Medicinal Chemistry, 2022)

Tests used:
[1] = target: MettL3-MettL14 (Homo sapiens, UniProt Q86U44); assay: Selectivity assay, MettL3-MettL14; format: biochemical; conditions: [I] = 10 μM, [SAM] = 20 μM, 5 mM NaCl, or CamA conditions
[2] = target: DOT1L (Homo sapiens, UniProt Q8TEK3); assay: Selectivity assay, DOT1L; format: biochemical; conditions: compound 10 μM, 3H-SAM 1 μM
[3] = target: PRMT1 (Homo sapiens, UniProt Q99873); assay: Selectivity assay, PRMT1; format: biochemical; conditions: compound 10 μM, 3H-SAM 1 μM
Chain of PRMT1 (Q99873 whole entry): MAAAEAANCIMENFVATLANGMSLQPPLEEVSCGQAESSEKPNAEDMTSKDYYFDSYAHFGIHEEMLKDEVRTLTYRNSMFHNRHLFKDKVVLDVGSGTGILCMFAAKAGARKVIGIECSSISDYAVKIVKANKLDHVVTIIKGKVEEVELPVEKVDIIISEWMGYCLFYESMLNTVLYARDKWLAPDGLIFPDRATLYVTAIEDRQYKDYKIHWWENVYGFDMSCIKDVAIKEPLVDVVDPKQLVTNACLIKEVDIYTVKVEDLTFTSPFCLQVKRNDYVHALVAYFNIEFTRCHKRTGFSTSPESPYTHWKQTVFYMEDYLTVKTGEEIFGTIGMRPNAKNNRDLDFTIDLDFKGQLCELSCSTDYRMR

[4] = target: Dnmt3a-Dnmt3L (Mus musculus, UniProt O88508); format: biochemical
[5] = target: CcrM (Caulobacter vibrioides, UniProt P0CAW2); format: biochemical, Caulobacter crescentus
Chain of CcrM (P0CAW2 whole entry): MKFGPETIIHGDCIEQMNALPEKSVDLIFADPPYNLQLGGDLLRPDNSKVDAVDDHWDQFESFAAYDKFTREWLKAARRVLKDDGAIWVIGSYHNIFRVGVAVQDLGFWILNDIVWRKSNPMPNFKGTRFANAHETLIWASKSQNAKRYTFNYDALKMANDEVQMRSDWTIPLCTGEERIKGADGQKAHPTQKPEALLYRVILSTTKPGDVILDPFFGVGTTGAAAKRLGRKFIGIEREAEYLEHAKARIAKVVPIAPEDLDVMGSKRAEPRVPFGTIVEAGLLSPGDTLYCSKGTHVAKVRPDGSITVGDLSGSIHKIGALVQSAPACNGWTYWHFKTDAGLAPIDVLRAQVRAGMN

[6] = target: T1, MettL16 (Homo sapiens, UniProt Q86W50); assay: Selectivity assay, MettL16; format: biochemical; conditions: [I] = 10 μM, [SAM] = 160 μM or 30 μM
T1 sequence (Q86W50 1-562): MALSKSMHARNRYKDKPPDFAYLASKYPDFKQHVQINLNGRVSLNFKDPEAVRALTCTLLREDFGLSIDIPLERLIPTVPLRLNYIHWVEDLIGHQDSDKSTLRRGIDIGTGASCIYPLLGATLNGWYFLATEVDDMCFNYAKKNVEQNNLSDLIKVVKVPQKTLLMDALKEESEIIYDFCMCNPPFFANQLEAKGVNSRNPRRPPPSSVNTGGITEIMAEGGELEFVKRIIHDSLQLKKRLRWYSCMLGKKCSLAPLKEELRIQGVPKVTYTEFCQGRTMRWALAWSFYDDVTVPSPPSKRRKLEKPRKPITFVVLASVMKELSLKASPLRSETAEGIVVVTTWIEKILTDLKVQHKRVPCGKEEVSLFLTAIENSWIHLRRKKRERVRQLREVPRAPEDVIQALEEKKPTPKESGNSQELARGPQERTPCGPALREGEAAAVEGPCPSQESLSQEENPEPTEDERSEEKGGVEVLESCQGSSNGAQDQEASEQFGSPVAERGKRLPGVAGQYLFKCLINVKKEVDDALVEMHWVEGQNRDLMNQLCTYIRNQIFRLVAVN

[7] = target: DNMT1 (Homo sapiens, UniProt P26358); assay: Selectivity assay, DNMT1; format: biochemical; conditions: [I] = 10 μM, [SAM] = 5.5 μM, 37 °C
Chain of DNMT1 (P26358 351-1600): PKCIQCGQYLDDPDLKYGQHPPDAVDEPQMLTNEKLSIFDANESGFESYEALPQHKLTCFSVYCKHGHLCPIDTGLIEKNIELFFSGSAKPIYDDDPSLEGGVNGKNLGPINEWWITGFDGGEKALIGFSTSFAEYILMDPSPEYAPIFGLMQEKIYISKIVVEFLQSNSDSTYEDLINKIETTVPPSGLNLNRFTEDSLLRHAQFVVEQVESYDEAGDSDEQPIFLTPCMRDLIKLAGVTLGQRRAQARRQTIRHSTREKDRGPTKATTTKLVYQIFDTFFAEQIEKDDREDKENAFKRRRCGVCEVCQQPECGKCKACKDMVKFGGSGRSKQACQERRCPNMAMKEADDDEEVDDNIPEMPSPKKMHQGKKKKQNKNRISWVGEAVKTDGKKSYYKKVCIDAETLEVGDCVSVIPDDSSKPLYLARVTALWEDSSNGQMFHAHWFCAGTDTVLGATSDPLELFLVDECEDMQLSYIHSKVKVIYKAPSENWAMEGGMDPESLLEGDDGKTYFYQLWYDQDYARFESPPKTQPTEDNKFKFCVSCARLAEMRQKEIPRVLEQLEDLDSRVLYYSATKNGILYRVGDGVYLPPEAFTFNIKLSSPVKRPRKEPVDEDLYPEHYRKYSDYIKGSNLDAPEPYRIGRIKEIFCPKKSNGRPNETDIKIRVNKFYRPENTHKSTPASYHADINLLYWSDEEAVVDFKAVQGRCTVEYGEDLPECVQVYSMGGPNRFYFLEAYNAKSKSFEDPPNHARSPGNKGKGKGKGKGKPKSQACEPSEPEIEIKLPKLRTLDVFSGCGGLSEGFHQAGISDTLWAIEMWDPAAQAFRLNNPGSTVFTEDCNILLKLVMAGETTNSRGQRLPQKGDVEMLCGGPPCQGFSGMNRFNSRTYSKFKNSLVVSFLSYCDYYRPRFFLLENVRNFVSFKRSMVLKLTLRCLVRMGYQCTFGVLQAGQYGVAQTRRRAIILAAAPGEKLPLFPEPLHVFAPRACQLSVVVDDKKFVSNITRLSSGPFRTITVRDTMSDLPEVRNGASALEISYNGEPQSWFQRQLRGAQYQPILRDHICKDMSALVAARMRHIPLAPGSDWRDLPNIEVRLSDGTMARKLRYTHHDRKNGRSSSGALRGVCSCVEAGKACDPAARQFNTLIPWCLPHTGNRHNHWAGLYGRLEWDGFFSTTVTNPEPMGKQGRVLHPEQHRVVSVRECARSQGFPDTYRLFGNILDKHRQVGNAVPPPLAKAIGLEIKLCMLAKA

[8] = target: PCIF1 (Homo sapiens, UniProt Q9H4Z3); format: biochemical
[9] = target: MettL5-Trm112 (Homo sapiens, UniProt Q9NRN9); format: biochemical
Chain of MettL5-Trm112 (Q9NRN9 whole entry): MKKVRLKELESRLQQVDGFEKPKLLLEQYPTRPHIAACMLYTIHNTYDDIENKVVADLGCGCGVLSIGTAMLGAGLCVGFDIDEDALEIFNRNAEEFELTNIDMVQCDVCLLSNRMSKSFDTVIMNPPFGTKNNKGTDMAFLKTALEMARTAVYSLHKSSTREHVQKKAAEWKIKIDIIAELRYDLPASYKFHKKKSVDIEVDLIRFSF
Chain of MettL5-Trm112 (Q9UI30 whole entry partner): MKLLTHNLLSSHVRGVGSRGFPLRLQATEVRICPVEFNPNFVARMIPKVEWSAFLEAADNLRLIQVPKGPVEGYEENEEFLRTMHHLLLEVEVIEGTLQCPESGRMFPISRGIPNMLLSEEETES

[10] = target: EZH2 complex (Homo sapiens, UniProt Q15910); assay: Selectivity assay, EZH2 complex; format: biochemical; conditions: compound 10 μM, 3H-SAM 1 μM
[11] = target: T2, CamA (Clostridioides difficile, UniProt Q183J3); assay: Isothermal titration calorimetry; format: binding; conditions: from that of compound 37
T2 sequence (Q183J3 1-577): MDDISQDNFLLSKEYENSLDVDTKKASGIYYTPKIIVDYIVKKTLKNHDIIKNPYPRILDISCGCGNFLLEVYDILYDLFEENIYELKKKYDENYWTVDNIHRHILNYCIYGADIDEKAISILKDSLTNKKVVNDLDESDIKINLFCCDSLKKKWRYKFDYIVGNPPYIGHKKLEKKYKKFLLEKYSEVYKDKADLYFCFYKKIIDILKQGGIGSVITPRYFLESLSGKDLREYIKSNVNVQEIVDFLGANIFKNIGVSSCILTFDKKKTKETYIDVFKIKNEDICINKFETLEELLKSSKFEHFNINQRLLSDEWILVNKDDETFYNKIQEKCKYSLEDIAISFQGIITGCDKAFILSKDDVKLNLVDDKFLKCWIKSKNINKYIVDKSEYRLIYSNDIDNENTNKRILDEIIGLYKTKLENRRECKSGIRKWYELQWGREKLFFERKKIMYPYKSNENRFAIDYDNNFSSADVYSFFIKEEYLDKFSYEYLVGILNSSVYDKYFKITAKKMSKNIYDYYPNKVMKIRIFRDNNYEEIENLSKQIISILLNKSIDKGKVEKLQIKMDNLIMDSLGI

[12] = target: T3, G9a (Homo sapiens, UniProt Q96KQ7); assay: Selectivity assay, G9a; format: biochemical; conditions: compound 10 μM, 3H-SAM 1 μM
T3 sequence (Q96KQ7 1-1210): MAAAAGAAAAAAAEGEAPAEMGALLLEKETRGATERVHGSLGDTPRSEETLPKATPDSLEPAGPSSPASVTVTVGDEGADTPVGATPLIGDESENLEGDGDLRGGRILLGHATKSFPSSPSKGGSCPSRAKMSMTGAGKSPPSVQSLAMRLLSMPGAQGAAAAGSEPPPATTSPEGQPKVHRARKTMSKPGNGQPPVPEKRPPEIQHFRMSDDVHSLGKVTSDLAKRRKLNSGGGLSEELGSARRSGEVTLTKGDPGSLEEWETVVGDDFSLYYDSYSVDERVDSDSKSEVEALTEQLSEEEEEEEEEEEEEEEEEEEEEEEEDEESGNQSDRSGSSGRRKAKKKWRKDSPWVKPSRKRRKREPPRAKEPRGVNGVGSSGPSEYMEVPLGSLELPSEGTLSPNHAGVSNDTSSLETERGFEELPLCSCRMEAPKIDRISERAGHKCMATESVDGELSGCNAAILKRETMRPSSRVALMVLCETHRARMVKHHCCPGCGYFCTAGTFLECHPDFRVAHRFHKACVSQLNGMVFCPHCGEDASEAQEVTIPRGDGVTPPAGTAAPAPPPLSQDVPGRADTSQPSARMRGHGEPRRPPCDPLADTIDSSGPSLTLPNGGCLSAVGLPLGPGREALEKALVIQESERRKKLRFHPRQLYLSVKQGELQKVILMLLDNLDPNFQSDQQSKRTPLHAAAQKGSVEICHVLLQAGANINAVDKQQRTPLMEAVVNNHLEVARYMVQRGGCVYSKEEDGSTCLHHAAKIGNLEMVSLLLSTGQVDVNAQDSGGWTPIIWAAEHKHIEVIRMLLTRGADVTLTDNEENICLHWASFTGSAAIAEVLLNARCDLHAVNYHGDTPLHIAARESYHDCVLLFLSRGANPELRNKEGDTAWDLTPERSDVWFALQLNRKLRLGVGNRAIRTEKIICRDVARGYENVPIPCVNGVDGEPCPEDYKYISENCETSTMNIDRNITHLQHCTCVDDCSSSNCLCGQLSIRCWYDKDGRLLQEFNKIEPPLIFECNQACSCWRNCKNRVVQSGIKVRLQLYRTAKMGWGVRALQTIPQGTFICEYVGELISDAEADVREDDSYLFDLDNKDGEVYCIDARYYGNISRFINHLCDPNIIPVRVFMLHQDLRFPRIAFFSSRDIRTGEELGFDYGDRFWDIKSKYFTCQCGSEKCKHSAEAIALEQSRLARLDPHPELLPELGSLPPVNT

[13] = target: T4, A1 adenosine receptor (A1AR) (Homo sapiens, UniProt P30542); assay: A1AR agonist radioligand binding assay; conditions: compound 10 μM, [3H]CCPA 1 nM, transfected CHO cell membranes
T4 sequence (P30542 1-326): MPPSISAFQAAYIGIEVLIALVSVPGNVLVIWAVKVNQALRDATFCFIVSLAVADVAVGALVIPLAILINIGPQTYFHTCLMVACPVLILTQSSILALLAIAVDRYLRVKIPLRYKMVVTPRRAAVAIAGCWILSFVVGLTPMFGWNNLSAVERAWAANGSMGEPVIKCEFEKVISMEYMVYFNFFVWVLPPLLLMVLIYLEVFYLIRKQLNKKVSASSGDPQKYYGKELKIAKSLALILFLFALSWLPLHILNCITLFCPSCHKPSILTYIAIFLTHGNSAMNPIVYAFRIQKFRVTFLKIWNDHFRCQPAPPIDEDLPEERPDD

[14] = target: T5, Dam (Escherichia coli, UniProt P0AEE8); format: biochemical
T5 sequence (P0AEE8 1-278): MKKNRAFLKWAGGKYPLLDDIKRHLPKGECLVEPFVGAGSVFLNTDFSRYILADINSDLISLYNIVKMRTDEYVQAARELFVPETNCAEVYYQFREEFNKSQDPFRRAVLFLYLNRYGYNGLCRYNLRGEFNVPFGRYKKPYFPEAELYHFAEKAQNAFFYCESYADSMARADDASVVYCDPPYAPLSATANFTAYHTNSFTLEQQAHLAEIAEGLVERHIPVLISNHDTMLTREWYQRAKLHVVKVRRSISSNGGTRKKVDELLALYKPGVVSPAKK

Chain of DOT1L (Q8TEK3 whole entry): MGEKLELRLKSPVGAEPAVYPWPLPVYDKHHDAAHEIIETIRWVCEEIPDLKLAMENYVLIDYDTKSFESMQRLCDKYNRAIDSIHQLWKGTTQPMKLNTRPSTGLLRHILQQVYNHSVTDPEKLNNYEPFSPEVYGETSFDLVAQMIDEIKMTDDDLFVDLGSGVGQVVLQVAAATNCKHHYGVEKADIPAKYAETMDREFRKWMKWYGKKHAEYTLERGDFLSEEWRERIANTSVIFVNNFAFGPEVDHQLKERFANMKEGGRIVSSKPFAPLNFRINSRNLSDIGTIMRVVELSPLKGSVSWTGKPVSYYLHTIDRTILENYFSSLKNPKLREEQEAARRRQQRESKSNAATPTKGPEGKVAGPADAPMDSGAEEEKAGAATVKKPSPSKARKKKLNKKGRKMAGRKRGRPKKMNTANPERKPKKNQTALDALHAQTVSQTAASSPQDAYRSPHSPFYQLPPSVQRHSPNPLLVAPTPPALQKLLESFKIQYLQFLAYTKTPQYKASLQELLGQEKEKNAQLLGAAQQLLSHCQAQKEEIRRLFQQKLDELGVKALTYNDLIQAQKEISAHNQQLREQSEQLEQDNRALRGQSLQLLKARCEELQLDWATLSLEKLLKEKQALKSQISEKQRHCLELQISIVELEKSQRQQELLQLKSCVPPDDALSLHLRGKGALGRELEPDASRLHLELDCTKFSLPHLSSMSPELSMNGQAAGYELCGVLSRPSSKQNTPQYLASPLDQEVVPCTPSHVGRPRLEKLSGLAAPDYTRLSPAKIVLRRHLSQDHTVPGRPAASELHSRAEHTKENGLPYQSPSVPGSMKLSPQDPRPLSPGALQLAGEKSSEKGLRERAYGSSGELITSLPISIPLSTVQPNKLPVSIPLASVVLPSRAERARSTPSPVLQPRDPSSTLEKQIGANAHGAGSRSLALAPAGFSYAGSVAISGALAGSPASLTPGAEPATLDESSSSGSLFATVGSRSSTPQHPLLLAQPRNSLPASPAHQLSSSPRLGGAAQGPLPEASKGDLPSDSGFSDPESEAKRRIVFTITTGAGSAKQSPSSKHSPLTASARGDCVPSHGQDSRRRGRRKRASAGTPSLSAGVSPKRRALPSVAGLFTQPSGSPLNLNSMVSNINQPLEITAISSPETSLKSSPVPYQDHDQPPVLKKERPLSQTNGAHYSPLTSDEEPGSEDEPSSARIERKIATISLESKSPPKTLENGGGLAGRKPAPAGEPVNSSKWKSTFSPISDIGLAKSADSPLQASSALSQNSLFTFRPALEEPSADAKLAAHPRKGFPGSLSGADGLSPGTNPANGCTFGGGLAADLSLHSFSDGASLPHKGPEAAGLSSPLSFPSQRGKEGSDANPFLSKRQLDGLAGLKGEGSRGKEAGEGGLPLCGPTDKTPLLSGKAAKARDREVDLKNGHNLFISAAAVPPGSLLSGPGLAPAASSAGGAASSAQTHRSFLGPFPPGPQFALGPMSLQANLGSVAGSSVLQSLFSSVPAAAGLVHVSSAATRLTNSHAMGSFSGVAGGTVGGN
Chain of MettL3-MettL14 (Q86U44 whole entry): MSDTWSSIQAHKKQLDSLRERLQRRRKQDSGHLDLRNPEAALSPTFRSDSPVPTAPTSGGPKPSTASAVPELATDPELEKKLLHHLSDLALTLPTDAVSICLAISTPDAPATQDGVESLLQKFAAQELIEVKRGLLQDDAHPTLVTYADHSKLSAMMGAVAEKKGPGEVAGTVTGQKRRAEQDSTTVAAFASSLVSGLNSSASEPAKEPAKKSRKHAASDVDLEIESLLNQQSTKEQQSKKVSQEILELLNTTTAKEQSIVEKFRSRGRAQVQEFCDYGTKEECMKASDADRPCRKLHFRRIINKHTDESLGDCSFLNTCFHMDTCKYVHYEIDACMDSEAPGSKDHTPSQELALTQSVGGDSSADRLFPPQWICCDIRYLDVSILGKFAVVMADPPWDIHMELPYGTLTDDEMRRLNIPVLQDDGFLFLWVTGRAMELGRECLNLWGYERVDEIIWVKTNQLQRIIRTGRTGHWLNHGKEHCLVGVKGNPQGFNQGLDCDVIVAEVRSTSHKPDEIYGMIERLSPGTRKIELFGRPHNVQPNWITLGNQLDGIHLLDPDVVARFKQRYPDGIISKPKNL
Chain of MettL3-MettL14 (Q9HCE5 whole entry partner): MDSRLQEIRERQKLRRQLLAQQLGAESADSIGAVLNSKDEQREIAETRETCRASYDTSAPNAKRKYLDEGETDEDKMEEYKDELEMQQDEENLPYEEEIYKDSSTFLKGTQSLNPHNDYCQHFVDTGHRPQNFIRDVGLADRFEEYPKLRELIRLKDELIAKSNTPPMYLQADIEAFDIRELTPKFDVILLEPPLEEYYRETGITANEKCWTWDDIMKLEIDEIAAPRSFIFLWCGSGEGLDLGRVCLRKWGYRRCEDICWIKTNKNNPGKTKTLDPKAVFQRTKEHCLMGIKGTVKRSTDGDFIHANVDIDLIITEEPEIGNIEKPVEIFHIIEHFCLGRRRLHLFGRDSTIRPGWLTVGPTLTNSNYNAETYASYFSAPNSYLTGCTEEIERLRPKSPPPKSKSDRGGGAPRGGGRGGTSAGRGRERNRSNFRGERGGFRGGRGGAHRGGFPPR

CC(C)(C)OC(=O)N1CCC(CCNc2ncnc3c2ncn3[C@@H]2O[C@H](CO)[C@@H](O)[C@H]2O)CC1 [Compound 38, tert-Butyl-4-(2-((9-((2R,3R,4S,5R)-3,4-dihydroxy-5-(hydroxymethyl)tetrahydrofuran-2-yl)-9H-purin-6-yl)amino)ethyl)piperidine-1-carboxylate]
inhibition of MettL3-MettL14 [1]: none of them showed any significant inhibition
inhibition of DOT1L [2]: none of them showed any significant inhibition
inhibition of PRMT1 [3]: none of them showed any significant inhibition
inhibition of Dnmt3a-Dnmt3L [4]: none of them showed any significant inhibition
inhibition of CcrM [5]: none of them showed any significant inhibition
inhibition of MettL16 [6]: none of them showed any significant inhibition
inhibition of DNMT1 [7]: none of them showed any significant inhibition
inhibition of PCIF1 [8]: none of them showed any significant inhibition
inhibition of MettL5-Trm112 [9]: none of them showed any significant inhibition
inhibition of EZH2 complex [10]: none of them showed any significant inhibition
KD improved, fold [11]: ~8 ×
inhibition of G9a [12]: none of them showed any significant inhibition
inhibition of control radioligand specific binding, A1AR [13]: minimal inhibition of specific binding
inhibition of Dam [14]: none of them showed any significant inhibition
